# Measurements: article PMC9261963, “Synthesis and Biological Evaluation of 5-Fluoro-2-Oxindole Derivatives as Potential α-Glucosidase Inhibitors” (Frontiers in Chemistry, 2022)
# Like-named read-outs stand apart in the source and are kept apart here.
# Experiments:
# [1] = biological target: T1, α-glucosidase from Saccharomyces cerevisiae (EC 3.2.1.20) (Saccharomyces cerevisiae, UniProt P53341); assay: biochemical; details: for IC50 / inhibition at 100 µM / Inhibition rate at a concentration of 100 μM (%): p-NPG substrate; for IC50: pH 6.8, 37°C; for inhibition at 100 µM: read-out: Inhibition rate at a concentration of 100 μM (%), 100 μM compound; for Inhibition rate at a concentration of 100 μM (%): 100 μM compound; for Inhibitory activity, folds higher than acarbose: IC50 compared with acarbose
# T1 construct: purchased Sigma-Aldrich
# T1 sequence (P53341 whole entry): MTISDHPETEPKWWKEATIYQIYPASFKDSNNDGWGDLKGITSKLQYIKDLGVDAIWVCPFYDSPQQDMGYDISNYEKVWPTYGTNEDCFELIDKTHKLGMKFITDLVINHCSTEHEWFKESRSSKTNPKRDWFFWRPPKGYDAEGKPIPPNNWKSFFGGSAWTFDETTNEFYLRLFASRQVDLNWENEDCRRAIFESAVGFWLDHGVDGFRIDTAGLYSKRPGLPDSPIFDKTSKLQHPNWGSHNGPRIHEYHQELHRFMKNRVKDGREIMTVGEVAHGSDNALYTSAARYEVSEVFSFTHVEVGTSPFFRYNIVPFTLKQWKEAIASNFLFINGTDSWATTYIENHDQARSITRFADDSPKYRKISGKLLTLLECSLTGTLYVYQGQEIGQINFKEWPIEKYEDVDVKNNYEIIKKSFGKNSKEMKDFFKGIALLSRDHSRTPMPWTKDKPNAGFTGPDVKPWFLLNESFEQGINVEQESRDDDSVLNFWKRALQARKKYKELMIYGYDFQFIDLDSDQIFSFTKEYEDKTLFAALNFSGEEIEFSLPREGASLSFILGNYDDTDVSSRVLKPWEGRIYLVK
# Procedure: Then, the inhibitory activity of compounds (3a ∼ 3v) on α-glucosidase from S. cerevisiae was investigated using p-NPG as the substrate. First, the inhibitory activities of compounds (3a ∼ 3v) were screened at a concentration of 100 μM.
# The α-glucosidase inhibition of synthetic compounds was performed as previously reported methods with minor modification ([Deng et al., 2022]) which is as follows: briefly, 130 μl of phosphate buffer (10 mM, pH 6.8), 10 μl of α-glucosidase (1 U/ml), and 10 μl of test compound solution were added into the wells of a 96-well plate, followed by incubation for 10 min at 37°C. Then, 50 μl of p-NPG (1 mM) was added, and the plate was further incubated for 30 min at 37°C. Finally, the absorbance of each well was recorded at 405 nm using a microplate reader. […] The inhibition of the test compound on α-glucosidase was calculated as follows: inhibition ratio (%) = [(A− B)/A] × 100, where A is the absorbance of blank and B is the absorbance of the test compound. Each concentration was experimented four times in parallel. Half inhibitory concentration (IC50) was obtained from the fitting curve of inhibition ratio vs. test compound with different concentrations.
# [2] = biological target: T1, α-glucosidase from Saccharomyces cerevisiae (EC 3.2.1.20); assay: Kinetics mechanism analysis (enzyme activity vs enzyme concentration; Lineweaver–Burk plots); assay type: biochemical; details: for Inhibition mechanism (inhibition type): Lineweaver–Burk plot analysis; for Ki: inhibition constant from slope vs inhibitor concentration (free enzyme); for K IS: inhibition constant from vertical intercept vs inhibitor concentration (enzyme–substrate complex); for Reversibility of inhibition: plots of enzyme activity vs enzyme concentration
# Procedure: In order to obtain the inhibition kinetics type of compounds 3d, 3f, and 3i, the Lineweaver–Burk plot analysis method was carried out with different concentrations of test compounds and substrates.
# Compounds 3d, 3f, and 3i with much better α-glucosidase inhibitory activity were selected for kinetic analysis. The experiments were performed to investigate the kinetics mechanism of compounds 3d, 3f, and 3i by the previously reported method ([Xu et al., 2019]). To determine the inhibition mechanism, the final concentrations for 3d were 0, 40, 50, 60 μM, for 3f were 0, 40, 50, 60 μM, and for 3i were 0, 30, 40, 50 μM, the final substrate p-NPG concentration was 0.25 mM, and the final concentrations for α-glucosidase were 3.75 × 10^–2, 5.00 × 10^–2, 6.25 × 10^–2, and 7.50 × 10^–2 U/ml. Then, the inhibition rates were measured by the aforementioned method.
# To analyze the inhibition type, the final concentrations for 3d were 0, 40, 50, and 60 μM, for 3f were 0, 40, 50, and 60 μM, and for 3i were 0, 30, 40, and 50 μM, the final α-glucosidase concentration was 5.00 × 10^–2 U/ml, and final concentrations for substrate p-NPG concentration were 0.25, 0.50, 0.75, and 1.00 mM. The inhibition rates were obtained by the aforementioned method. The inhibition type on α-glucosidase was analyzed by using Lineweaver–Burk plots of the inverse of velocities (1/v) vs. the inverse of substrate concentration 1/[S]. The K I and K IS were obtained from the slope and the vertical intercept vs. the inhibitor concentration, respectively.
# 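Wherever IC50 (μM) is given: Absorbance-based enzyme read-out, with each concentration tested in four parallel replicates.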
# 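Wherever IC50 is given: Absorbance-based enzyme read-out, with each concentration tested in four parallel replicates.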
# 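Wherever Inhibition rate at a concentration of 100 μM (%) is given: Absorbance-based enzyme read-out, with each concentration tested in four parallel replicates.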
# 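Wherever Inhibitory activity, folds higher than acarbose is given: Absorbance-based enzyme read-out, with each concentration tested in four parallel replicates.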
Molecule,IC50 ([1]; read-out: IC50) [µM],IC50 ([1]; IC50 (μM)) [µM],inhibition at 100 µM [1] [%],melting point [°C],Inhibition rate at a concentration of 100 μM (%) [1] [%],"Inhibitory activity, folds higher than acarbose [1]",Inhibition mechanism (inhibition type) [2],Ki [2] [µM],K IS [2] [µM],Reversibility of inhibition [2]
"O=C1Cc2cc(F)ccc2N1 [5-Fluoro-2-oxindole, 5-fluoro-2-oxindole]",7510,–,–,–,–,–,–,–,–,–
"O=C1Nc2ccc(F)cc2/C1=C/c1ccccc1F [Compound 3a, (Z)-5-Fluoro-3-(2-Fluorobenzylidene) Indolin-2-One]",–,> 100,7.29 ± 0.16,228.3 to 230.2,–,–,–,–,–,–
"O=C1Nc2ccc(F)cc2/C1=C/c1cccc(F)c1 [Compound 3b, (Z)-5-Fluoro-3-(3-Fluorobenzylidene) Indolin-2-One]",–,> 100,5.19 ± 0.79,191.4 to 192.2,–,–,–,–,–,–
"O=C1Nc2ccc(F)cc2/C1=C/c1ccc(F)cc1 [Compound 3c, (Z)-5-Fluoro-3-(4-Fluorobenzylidene) Indolin-2-One]",–,> 100,9.55 ± 0.13,217 to 219.6,–,–,–,–,–,–
"O=C1Nc2ccc(F)cc2/C1=C/c1ccccc1Cl [Compound 3d, (Z)-3-(2-Chlorobenzylidene)-5-Fluoroindolin-2-One]",–,49.9 ± 1.16,~90,219.7 to 221.9,89.19 ± 0.14,10 ∼ 15 folds,Mixed type,15,453.85,reversible
"O=C1Nc2ccc(F)cc2/C1=C/c1cccc(Cl)c1 [Compound 3e, (Z)-3-(3-Chlorobenzylidene)-5-Fluoroindolin-2-One]",–,> 100,21.6 ± 0.78,237.4 to 238.9,–,–,–,–,–,–
"O=C1Nc2ccc(F)cc2/C1=C/c1ccc(Cl)cc1 [Compound 3f, (Z)-3-(4-Chlorobenzylidene)-5-Fluoroindolin-2-One]",–,35.8 ± 0.98,~90,200.6 to 202.5,90.52 ± 0.27,10 ∼ 15 folds,Mixed type,33.8,58.31,reversible
"O=C1Nc2ccc(F)cc2/C1=C/c1ccccc1Br [Compound 3g, (Z)-3-(2-Bromobenzylidene)-5-Fluoroindolin-2-One]",–,95.68 ± 0.28,~50,194.9 to 197.1,53.71 ± 0.47,–,–,–,–,–
"O=C1Nc2ccc(F)cc2/C1=C/c1cccc(Br)c1 [Compound 3h, (Z)-3-(3-Bromobenzylidene)-5-Fluoroindolin-2-One]",–,> 100,31.61 ± 0.21,222.6 to 223.8,–,–,–,–,–,–
"O=C1Nc2ccc(F)cc2/C1=C/c1ccc(Br)cc1 [Compound 3i, (Z)-3-(4-Bromobenzylidene)-5-Fluoroindolin-2-One]",–,56.87 ± 0.42,~90,249.3 to 251.6,92.86 ± 0.32,10 ∼ 15 folds,Mixed type,22.7,24.74,reversible
"COc1ccccc1/C=C1\C(=O)Nc2ccc(F)cc21 [Compound 3j, (Z)-5-Fluoro-3-(2-Methoxybenzylidene) Indolin-2-One]",–,> 100,19.2 ± 1.21,227.1 to 227.8,–,–,–,–,–,–
"COc1cccc(/C=C2\C(=O)Nc3ccc(F)cc32)c1 [Compound 3k, (Z)-5-Fluoro-3-(3-Methoxybenzylidene) Indolin-2-One]",–,> 100,27.2 ± 1.47,200.1 to 202.1,–,–,–,–,–,–
"COc1ccc(/C=C2\C(=O)Nc3ccc(F)cc32)cc1 [Compound 3l, (Z)-5-Fluoro-3-(4-Methoxybenzylidene) Indolin-2-One]",–,> 100,15.7 ± 0.71,358.8 to 359.9,–,–,–,–,–,–
"O=C1Nc2ccc(F)cc2/C1=C/c1ccccc1C(F)(F)F [Compound 3m, (Z)-5-Fluoro-3-[2-(Trifluoromethyl) Benzylidene) Indolin-2-One]",> 100,–,8.43 ± 1.14,235.2 to 236.4,–,–,–,–,–,–
"O=C1Nc2ccc(F)cc2/C1=C/c1cccc(C(F)(F)F)c1 [Compound 3n, (Z)-5-Fluoro-3-[3-(Trifluoromethyl) Benzylidene] Indolin-2-One]",–,96.78 ± 0.72,~50,199.7 to 200.5,52.79 ± 1.68,–,–,–,–,–
"O=C1Nc2ccc(F)cc2/C1=C/c1ccc(F)cc1F [Compound 3o, (Z)-3-(2,4-Difluorobenzylidene)-5-Fluoroindolin-2-One]",–,> 100,18.8 ± 1.15,221.1 to 224.3,–,–,–,–,–,–
"O=C1Nc2ccc(F)cc2/C1=C/c1ccccc1 [Compound 3q, (Z)-3-Benzylidene-5-Fluoroindolin-2-One]",–,> 100,10 ± 1.75,–,–,–,–,–,–,–
"CSc1ccc(/C=C2\C(=O)Nc3ccc(F)cc32)cc1 [Compound 3r, (Z)-5-Fluoro-3-[4-(Methylthio) Benzylidene] Indolin-2-One]",–,90.6 ± 1.87,~50,246.1 to 247.1,60.8 ± 1.27,–,–,–,–,–
"O=C1Nc2ccc(F)cc2/C1=C/c1ccco1 [Compound 3s, (Z)-5-Fluoro-3-(Furan-2-ylmethylene) Indolin-2-One]",–,> 100,4.49 ± 1.88,237.9 to 238.8,–,–,–,–,–,–
"O=C1Nc2ccc(F)cc2/C1=C/c1cccs1 [Compound 3t, (Z)-5-Fluoro-3-(Thiophen-2-ylmethylene) Indolin-2-One]",–,> 100,5.67 ± 1.11,–,–,–,–,–,–,–
"O=C1Nc2ccc(F)cc2/C1=C/c1ccc[nH]1 [Compound 3u, (Z)-3-[(1H-Pyrrol-2-yl)methylene]-5-Fluoroindolin-2-One]",–,> 100,3.77 ± 1.35,–,–,–,–,–,–,–
"O=C1Nc2ccc(F)cc2/C1=C/c1ccccn1 [Compound 3v, (Z)-5-Fluoro-3-(Pyridin-2-ylmethylene) Indolin-2-One]",–,> 100,3.99 ± 1.28,248.5 to 251.2,–,–,–,–,–,–
"(Z)-3-(3,4-Difluorobenzylidene)-5-Fluoroindolin-2-One [Compound 3p]",92.62 ± 0.45,–,–,–,55.89 ± 1.71,–,–,–,–,–
